Data reported in PMC6238539, “Discovery of a cofactor-independent inhibitor of Mycobacterium tuberculosis InhA” (Life Science Alliance, 2018).
Where two headings read alike, the source gives them in different places.

Columns and labels:
M. tuberculosis InhA [1] = target: T1, M. tuberculosis InhA (Mycobacterium tuberculosis, UniProt P9WGR1); test: InhA in vitro inhibition assay; assay type: biochemical
M. tuberculosis H37Rv [2] = test: microbe, parasite or virus in culture; assay type: cell-based, Mycobacterium tuberculosis; settings: for IC90: Mycobacterium tuberculosis, H37RV, whole-cell M. tuberculosis
[3] = test system: intracellular M. tuberculosis in THP-1 cells; test: microbe, parasite or virus in culture; assay type: cell-based; settings: Mycobacterium tuberculosis
in vitro [4] = assay type: cell-based; settings: human; read-out: HepG2 cytotoxicity IC50
Experimental: HepG2 human liver cells (ATCC HB 8065) were propagated in DMEM containing either 25 mM glucose or 10 mM galactose plus 10% vol/vol FBS, 1 mM sodium pyruvate, 2 mM Corning glutagro, 100 U/ml penicillin, and 100 μg/ml streptomycin. The cells were seeded in 384-well plates at 1,800 cells per well and incubated in a humidified incubator at 37°C, 5% CO2. Compounds were solubilized in DMSO and assayed using a 10-point threefold serial dilution. Compounds were added 24 h post cell seeding to a final assay concentration of 1% DMSO and highest compound concentration of 100 μM. The cells were incubated for 72 h and viability measured using CellTiter-Glo reagent (Promega) and reading RLU. Growth inhibition curves were fitted using the Levenberg–Marquardt algorithm. The IC50 was defined as the compound concentration that produced 50% of the inhibitory response against HepG2 cells.

M. tuberculosis H37Rv [5] = test: Kill kinetics under replicating conditions; assay type: cell-based, Mycobacterium tuberculosis
in vitro [6] = settings: human
M. tuberculosis InhA [7] = target: T1, M. tuberculosis InhA; test: biochemical; assay type: binding
M. tuberculosis Erdman = assay type: in vivo, Mycobacterium tuberculosis; settings: dose escalation study (Table S4), 25 mg/kg, day 22

T1 sequence (P9WGR1 whole entry, looked up): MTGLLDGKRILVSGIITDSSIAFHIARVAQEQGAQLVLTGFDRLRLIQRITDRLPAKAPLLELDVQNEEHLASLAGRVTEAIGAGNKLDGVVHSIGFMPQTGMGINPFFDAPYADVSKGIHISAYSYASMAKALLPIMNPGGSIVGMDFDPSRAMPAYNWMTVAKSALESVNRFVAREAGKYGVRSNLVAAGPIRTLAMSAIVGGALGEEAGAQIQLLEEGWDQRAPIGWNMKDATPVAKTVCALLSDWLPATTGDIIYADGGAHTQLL

With OB1OCc2ccc(Oc3ccc(C(F)(F)F)cc3)cc21 [AN2918] as the compound, how does the IC50 (M. tuberculosis InhA [1]) read?
The IC50 was 44 µM.

And the IC90 (M. tuberculosis H37Rv [2])?
Its IC90 is greater than 200 µM.

Which IC50 (M. tuberculosis InhA [1]) does the source give for N#Cc1ccc(Oc2ccc3c(c2)COB3O)c(/C=N/O)c1 [AN3438] here?
The IC50 was 12 µM.

What about the IC90 (M. tuberculosis H37Rv [2]) of the same compound?
The IC90 was 16 ± 1.2 µM.

For CS(=O)(=O)N1N=Cc2ccc(Oc3ccc(C#N)cc3)cc2B1O [AN6534], which IC50 (M. tuberculosis InhA [1]) is on record?
The IC50 was 79 µM.

And the IC90 (M. tuberculosis H37Rv [2])?
Its IC90 is 36 ± 1.7 µM.

What does the source list for CS(=O)(=O)N1N=Cc2ccc(Oc3ccc(C(F)(F)F)cc3/C=N/O)cc2B1O [AN12541]?
IC50 (M. tuberculosis InhA [1]): 0.4 µM; increase in potency against purified InhA (M. tuberculosis InhA [1]; versus AN6534): 190 fold; IC90 (M. tuberculosis H37Rv [2]): 0.11 ± 0.21 µM; increase in potency against M. tuberculosis (M. tuberculosis H37Rv [2]; versus AN6534): 350 fold; IC50 [3]: 0.046 ± 0.013 µM; IC90 [3]: 0.11 ± 0.01 µM; IC50 (in vitro [4]): > 100 µM; bactericidal activity (M. tuberculosis H37Rv [5]): similarly active; IC50 (in vitro [6]): > 50 µM

Which IC50 (M. tuberculosis InhA [1]) does the source give for CCS(=O)(=O)N1N=Cc2cc(Oc3ccc(C(F)(F)F)cc3/C=N/O)ccc2B1O [AN12908] here?
Its IC50 is 2.3 µM.

And the IC90 (M. tuberculosis H37Rv [2])?
Its IC90 is 7 ± 2.6 µM.

What about the “cofactor dependence of binding to InhA” value (M. tuberculosis InhA [7]) of the same compound?
The value was “dependent on NAD^+ for binding”.

And the Kd (M. tuberculosis InhA [7]; cofactor: NAD^+)?
Its Kd is 0.847 ± 0.318 µM.

And the “N (stoichiometry of binding)” value (M. tuberculosis InhA [7]; cofactor: NAD^+)?
The value was 0.49 ± 0.022.

And the “∆H” value (M. tuberculosis InhA [7]; cofactor: NAD^+)?
Its value is −25,010 ± 1,496 cal/mol.

And the “∆S” value (M. tuberculosis InhA [7]; cofactor: NAD^+)?
The value was −56 cal/mol/deg.

With NNC(=O)c1ccncc1 [INH, isoniazid] as the compound, how does the IC90 (M. tuberculosis H37Rv [2]) read?
The IC90 was 0.2 µM.

And the “Mean ± SEM Log10 CFU” value (M. tuberculosis Erdman; lung)?
Its value is 4.6 ± 0.06 Log10 CFU.

What about the “Mean ± SEM Log10 CFU” value (M. tuberculosis Erdman; spleen) of the same compound?
Its value is 2.4 ± 0.15 Log10 CFU.
